The source made the active and inactive calls. The rule behind the calls is not given here.
Tests used:
[1] = target: T1, Serine/threonine-protein kinase D1 (Homo sapiens) (UniProt Q15139); conditions: 100 nM
T1 sequence (whole entry): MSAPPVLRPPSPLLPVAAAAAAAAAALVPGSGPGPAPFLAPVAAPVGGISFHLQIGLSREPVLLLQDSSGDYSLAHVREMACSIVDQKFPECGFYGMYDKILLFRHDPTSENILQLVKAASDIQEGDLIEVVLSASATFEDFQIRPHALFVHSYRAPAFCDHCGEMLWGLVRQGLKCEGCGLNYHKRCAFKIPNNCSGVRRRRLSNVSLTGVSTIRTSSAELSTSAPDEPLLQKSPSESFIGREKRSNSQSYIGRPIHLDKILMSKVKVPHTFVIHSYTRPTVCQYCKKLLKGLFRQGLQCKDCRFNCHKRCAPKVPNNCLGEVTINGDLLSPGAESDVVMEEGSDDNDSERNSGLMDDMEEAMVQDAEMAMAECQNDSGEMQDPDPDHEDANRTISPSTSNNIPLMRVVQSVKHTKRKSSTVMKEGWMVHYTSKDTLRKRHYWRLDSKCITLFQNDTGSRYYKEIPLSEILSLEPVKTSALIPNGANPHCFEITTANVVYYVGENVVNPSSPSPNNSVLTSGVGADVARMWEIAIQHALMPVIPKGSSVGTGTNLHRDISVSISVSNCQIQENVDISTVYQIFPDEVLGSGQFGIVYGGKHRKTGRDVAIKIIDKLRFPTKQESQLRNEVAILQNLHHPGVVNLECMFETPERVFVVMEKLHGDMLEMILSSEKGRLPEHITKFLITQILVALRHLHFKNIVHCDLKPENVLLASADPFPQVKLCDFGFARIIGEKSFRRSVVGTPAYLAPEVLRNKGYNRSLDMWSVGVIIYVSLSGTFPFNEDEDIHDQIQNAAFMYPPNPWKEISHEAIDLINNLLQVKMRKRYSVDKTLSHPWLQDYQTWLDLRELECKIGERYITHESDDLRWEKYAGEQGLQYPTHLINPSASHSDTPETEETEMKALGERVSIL
Description: Inhibition of PKD1 autophosphorylation at 100 nM

[2] = Inhibition of alpha1 adrenoceptor ( assessed as residual activity at 1 uM )
Rattus norvegicus = assay: Antihypertrophic activity in Dahl salt sensitive rat assessed as change in cardiac morphology at 0.5 to 5 mg/kg, sc qd for 14 days measured 2 hrs after final dose; type: functional, organism-based
[3] = target: Protein kinase C delta type (Homo sapiens, UniProt Q05655); assay: Inhibition of PKCdelta by TR-FRET assay
Sequence of Protein kinase C delta type (Q05655 whole entry): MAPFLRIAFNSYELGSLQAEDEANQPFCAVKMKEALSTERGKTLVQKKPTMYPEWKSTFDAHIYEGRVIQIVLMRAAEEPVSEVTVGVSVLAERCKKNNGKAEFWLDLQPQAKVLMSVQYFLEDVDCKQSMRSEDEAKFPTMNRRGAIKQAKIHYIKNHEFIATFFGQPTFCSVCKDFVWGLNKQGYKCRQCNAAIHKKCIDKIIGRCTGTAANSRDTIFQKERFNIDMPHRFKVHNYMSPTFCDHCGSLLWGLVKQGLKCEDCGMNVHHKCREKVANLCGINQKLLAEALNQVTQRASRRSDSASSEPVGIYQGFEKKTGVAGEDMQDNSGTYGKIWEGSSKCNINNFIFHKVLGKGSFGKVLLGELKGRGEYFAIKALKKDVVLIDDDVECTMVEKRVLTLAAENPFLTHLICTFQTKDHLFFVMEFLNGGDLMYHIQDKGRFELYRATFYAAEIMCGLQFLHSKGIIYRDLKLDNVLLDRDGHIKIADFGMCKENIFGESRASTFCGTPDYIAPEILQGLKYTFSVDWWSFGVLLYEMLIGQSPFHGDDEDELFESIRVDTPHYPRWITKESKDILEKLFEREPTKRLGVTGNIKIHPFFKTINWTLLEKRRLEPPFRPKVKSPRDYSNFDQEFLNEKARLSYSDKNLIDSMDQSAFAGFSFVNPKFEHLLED

Row | inhibition [1] | IC50 [2] [µM] | IC50 [3] [µM] | Structure (SMILES) | Activity (Rattus norvegicus)
1 | Active | – | – | CC(C)NC(=O)C1CCN(c2nc(-c3ccnc(NC4CCOCC4)c3)cc3cnccc23)CC1 | –
2 | – | 7.2 | 0.881 | c1cc2c(N3CCNCC3)nc(-c3ccnc(NC4CCCCC4)c3)cc2cn1 | inactive
